Laboratory results reported in US12404265B2, “Substituted pyridine derivatives as SARM1 inhibitors” (Nura Bio, Inc., priority 2020, dated 2025).

Molecular target: T1, human SARM1(50-724) (Homo sapiens, UniProt Q6SZW1)
T1 construct: 40 nM human SARM1(50-724)
T1 sequence (Q6SZW1 50-724): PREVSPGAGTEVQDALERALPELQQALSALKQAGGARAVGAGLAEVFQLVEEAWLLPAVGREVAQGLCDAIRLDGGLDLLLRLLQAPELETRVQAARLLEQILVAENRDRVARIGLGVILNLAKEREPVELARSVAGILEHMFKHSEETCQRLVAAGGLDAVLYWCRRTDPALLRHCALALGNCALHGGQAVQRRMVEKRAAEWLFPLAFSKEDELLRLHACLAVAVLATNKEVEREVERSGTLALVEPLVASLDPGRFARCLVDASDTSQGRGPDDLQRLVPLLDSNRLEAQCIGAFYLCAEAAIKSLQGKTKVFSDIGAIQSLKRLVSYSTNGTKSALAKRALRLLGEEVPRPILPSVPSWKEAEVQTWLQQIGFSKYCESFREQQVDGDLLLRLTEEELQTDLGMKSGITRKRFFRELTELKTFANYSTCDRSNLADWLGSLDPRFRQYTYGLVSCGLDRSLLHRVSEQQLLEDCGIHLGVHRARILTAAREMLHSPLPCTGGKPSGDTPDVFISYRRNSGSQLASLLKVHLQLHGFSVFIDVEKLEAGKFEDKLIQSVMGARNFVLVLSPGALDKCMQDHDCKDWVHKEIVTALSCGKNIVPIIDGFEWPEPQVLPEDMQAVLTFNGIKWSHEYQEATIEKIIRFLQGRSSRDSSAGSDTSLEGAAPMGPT
Assay: SARM1 NADase biochemical assay (HPLC of NAD and NAM)
Conditions: 40 nM human SARM1(50-724), 0.3 mM NMN, 20 μM NAD, 60 minutes room temperature; dose-response from 100 μM, 1:3 dilution
Method in brief: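 Human SARM1(50-724) at 40 nM with 0.3 mM NMN, 20 μM NAD, 1 mM TCEP in 25 mM HEPES pH 7.4, 10 mM KCl, 10 mM MgCl2, 1% DMSO; 60 min at room temperature, formic acid quench. NAD and NAM quantified by reverse-phase HPLC peak area; single point 50 μM or 1:3 series from 100 μM.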

Row | Structure (SMILES) | IC50 [µM]
1 | COc1cnccc1-c1cc(NC(=O)CCc2ccc(Cl)cc2)[nH]n1 [Example 169, 3-(4-Chlorophenyl)-N-(3-(3-methoxypyridin-4-yl)-1H-pyrazol-5-yl)propanamide] | 1 to 10
2 | O=C(CCc1ccc(Cl)cc1)Nc1cc(-c2ccncc2F)n[nH]1 [Example 170, 3-(4-Chlorophenyl)-N-(3-(3-fluoropyridin-4-yl)-1H-pyrazol-5-yl)propanamide] | < 1
